Experimental data published in PubChem BioAssay AID248 (DTP/NCI, 2004).
Several values for one entry are separate records, joined by “and”; a condition that tells them apart may be missing. Equal values may be shown once. Inconclusive results and toxic doses are left out.

Tested on: L1210 leukemia ip in BDF1 mice, survival T/C
Experiment: NCI In Vivo Anticancer Drug Screen. Data for tumor model L1210 Leukemia (intraperitoneal) in B6D2F1 (BDF1) mice
Conditions: endpoint: mean survival time, higher = longer survival
Summary of the method: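 Survival endpoint. Drug-treated group vs vehicle group, expressed as T divided by C. Tumor passaged by transplantation.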

[1] = dose: 50.0 mg/kg/injection, schedule: Q01DX009 (ip), vehicle: saline with Tween-80
[2] = dose: 100.0 mg/kg/injection, schedule: Q04DX003 (ip), vehicle: Klucel (hydroxypropylcellulose) (HPC)
[3] = dose: 100.0 mg/kg/injection, schedule: Q01DX009 (ip), vehicle: saline
[4] = dose: 100.0 mg/kg/injection, schedule: Q04DX003 (ip), vehicle: saline
[5] = dose: 200.0 mg/kg/injection, schedule: Q01DX009 (ip), vehicle: saline
[6] = dose: 200.0 mg/kg/injection, schedule: Q04DX003 (ip), vehicle: saline
[7] = dose: 400.0 mg/kg/injection, schedule: Q01DX009 (ip), vehicle: saline
[8] = dose: 400.0 mg/kg/injection, schedule: Q04DX003 (ip), vehicle: saline
[9] = dose: 200.0 mg/kg/injection, schedule: Q04DX003 (ip), vehicle: Klucel (hydroxypropylcellulose) (HPC)
[10] = dose: 400.0 mg/kg/injection, schedule: Q04DX003 (ip), vehicle: Klucel (hydroxypropylcellulose) (HPC)

In the case of `CCOC(=O)CCOc1ccccc1N(CCCl)CCCl`, the T/C (dose: 1.2 mg/kg/injection, schedule: Q01DX Z (ip), vehicle: methylcellulose (MC)) is reported as 110 % of control and 121 % of control, the T/C (dose: 2.4 mg/kg/injection, schedule: Q01DX Z (ip), vehicle: methylcellulose (MC)) is reported as 110 % of control and 113 % of control and the T/C (dose: 3.13 mg/kg/injection, schedule: Q01DX009 (ip), vehicle: other) is reported as 115 % of control. The T/C (dose: 4.7 mg/kg/injection, schedule: Q01DX Z (ip), vehicle: methylcellulose (MC)) was 108 % of control and 111 % of control, the T/C (dose: 6.2 mg/kg/injection, schedule: Q01DX001 (ip), vehicle: carboxymethylcellulose (CMC)) was 109 % of control and the T/C (dose: 8.7 mg/kg/injection, schedule: Q01DX Z (ip), vehicle: methylcellulose (MC)) was 178 % of control. The T/C (dose: 9.4 mg/kg/injection, schedule: Q01DX Z (ip), vehicle: methylcellulose (MC)) was 100 % of control and 120 % of control, the T/C (dose: 12.5 mg/kg/injection, schedule: Q04DX003 (ip), vehicle: other) was 106 % of control and the T/C (dose: 13.0 mg/kg/injection, schedule: Q01DX Z (ip), vehicle: methylcellulose (MC)) was 161 % of control. For the same compound, the T/C (dose: 22.0 mg/kg/injection, schedule: Q01DX001 (ip), vehicle: carboxymethylcellulose (CMC)) was 109 % of control, the T/C (dose: 25.0 mg/kg/injection, schedule: Q01DX001 (ip), vehicle: carboxymethylcellulose (CMC)) was 124 % of control and the T/C (dose: 25.0 mg/kg/injection, schedule: Q01DX009 (ip), vehicle: saline sonified) was 110 % of control. For the same compound, the T/C (dose: 25.0 mg/kg/injection, schedule: Q04DX003 (ip), vehicle: other) was 106 % of control, the T/C (dose: 33.0 mg/kg/injection, schedule: Q01DX001 (ip), vehicle: carboxymethylcellulose (CMC)) was 109 % of control and the T/C (dose: 44.0 mg/kg/injection, schedule: Q01DX Z (ip), vehicle: methylcellulose (MC)) was 201 % of control. For the same compound, the T/C (dose: 50.0 mg/kg/injection, schedule: Q01DX009 (ip), vehicle: saline sonified) was 114 % of control, the T/C [1] was 162 % of control and the T/C (dose: 66.0 mg/kg/injection, schedule: Q01DX Z (ip), vehicle: methylcellulose (MC)) was 159 % of control. For the same compound, the T/C (dose: 75.0 mg/kg/injection, schedule: Q01DX001 (ip), vehicle: carboxymethylcellulose (CMC)) was 112 % of control, the T/C (dose: 75.0 mg/kg/injection, schedule: Q01DX Z (ip), vehicle: methylcellulose (MC)) was 86 % of control and the T/C (dose: 100.0 mg/kg/injection, schedule: Q01DX Z (ip), vehicle: methylcellulose (MC)) was 109 % of control. The T/C [2] was 90 % of control.
In the case of `CC1=CC(=O)OC(C)(C)O1`, the T/C [3] is reported as 103 % of control, the T/C [4] is reported as 100 % of control and the T/C [5] is reported as 101 % of control. For the same compound, the T/C [6] was 91 % of control, the T/C [7] was 110 % of control and the T/C [8] was 98 % of control.
With `O=c1[nH]c(=O)ss1` the T/C [4] was 100 % of control and the T/C [6] was 94 % of control.
With `COc1cc(OC)c(NC(=O)CCl)cc1Cl` the T/C (dose: 100.0 mg/kg/injection, schedule: Q01DX009 (ip), vehicle: Klucel (hydroxypropylcellulose) (HPC)) was 104 % of control and the T/C (dose: 200.0 mg/kg/injection, schedule: Q01DX009 (ip), vehicle: Klucel (hydroxypropylcellulose) (HPC)) was 98 % of control.
With `Cc1ccc(NC(=O)Oc2ccc3ccccc3c2)cc1NC(=O)Oc1ccc2ccccc2c1` the T/C (dose: 100.0 mg/kg/injection, schedule: Q01DX009 (ip), vehicle: other) was 91 % of control, the T/C (dose: 200.0 mg/kg/injection, schedule: Q01DX009 (ip), vehicle: other) was 93 % of control and the T/C (dose: 400.0 mg/kg/injection, schedule: Q01DX009 (ip), vehicle: other) was 91 % of control.
With `O=C1CCCC1CN1CCOCC1` (stereo not given) the T/C [3] was 92 % of control, the T/C [5] was 96 % of control and the T/C [7] was 94 % of control.
For `O=C(c1ccccc1)c1cc(Cl)ccc1O`, the T/C (dose: 75.0 mg/kg/injection, schedule: Q01DX009 (ip), vehicle: Klucel (hydroxypropylcellulose) (HPC)) was 102 % of control, the T/C (dose: 100.0 mg/kg/injection, schedule: Q04DX002 (ip), vehicle: Klucel (hydroxypropylcellulose) (HPC)) was 100 % of control and the T/C (dose: 150.0 mg/kg/injection, schedule: Q01DX009 (ip), vehicle: Klucel (hydroxypropylcellulose) (HPC)) was 98 % of control. For the same compound, the T/C (dose: 200.0 mg/kg/injection, schedule: Q04DX002 (ip), vehicle: Klucel (hydroxypropylcellulose) (HPC)) was 93 % of control, the T/C (dose: 300.0 mg/kg/injection, schedule: Q01DX009 (ip), vehicle: Klucel (hydroxypropylcellulose) (HPC)) was 94 % of control and the T/C (dose: 400.0 mg/kg/injection, schedule: Q04DX002 (ip), vehicle: Klucel (hydroxypropylcellulose) (HPC)) was 96 % of control.
`CCCCCCCCCCCCOc1ccccc1C(=O)O` was tested, and the T/C (dose: 100.0 mg/kg/injection, schedule: Q01DX009 (ip), vehicle: saline sonified) was 98 % of control, the T/C [2] was 97 % of control and the T/C (dose: 200.0 mg/kg/injection, schedule: Q01DX009 (ip), vehicle: saline sonified) was 116 % of control. The T/C [9] was 89 % of control, the T/C (dose: 400.0 mg/kg/injection, schedule: Q01DX009 (ip), vehicle: saline sonified) was 108 % of control and the T/C [10] was 99 % of control.
In the case of `CCOC(=O)C(C)(C)CN(CC(C)(C)C(=O)OCC)C(C)(C)CO`, the T/C (dose: 100.0 mg/kg/injection, schedule: Q01DX001 (ip), vehicle: other) is reported as 95 % of control, the T/C (dose: 200.0 mg/kg/injection, schedule: Q01DX001 (ip), vehicle: other) is reported as 98 % of control and the T/C (dose: 400.0 mg/kg/injection, schedule: Q01DX001 (ip), vehicle: other) is reported as 87 % of control.
`C=C(C)Cn1cnc2c1c(=O)n(C)c(=O)n2C` was tested, and the T/C [4] was 103 % of control, the T/C [6] was 98 % of control and the T/C [8] was 89 % of control.
With `COc1ccc(/C=C2\SC(=O)NC2=O)cc1` the T/C (dose: 25.0 mg/kg/injection, schedule: Q01DX009 (ip), vehicle: saline with Tween-80) was 91 % of control, the T/C [1] was 104 % of control and the T/C (dose: 100.0 mg/kg/injection, schedule: Q01DX009 (ip), vehicle: saline with Tween-80) was 100 % of control.
For `C=C1C(=O)O[C@H]2C[C@@]3(C)[C@H](O)CCC(=C)[C@@H]3[C@@H](OC(C)=O)[C@H]12`, the T/C (dose: 25.0 mg/kg/injection, schedule: Q04DX002 (ip), vehicle: saline with Tween-80) was 86 % of control, the T/C (dose: 50.0 mg/kg/injection, schedule: Q04DX002 (ip), vehicle: saline with Tween-80) was 93 % of control and the T/C (dose: 100.0 mg/kg/injection, schedule: Q04DX002 (ip), vehicle: saline with Tween-80) was 108 % of control and 90 % of control.
With `COC(=O)C(c1ccccc1)C(O)c1ccccc1` (stereo not given) the T/C (dose: 55.0 mg/kg/injection, schedule: Q01DX Z (ip), vehicle: methylcellulose (MC)) was 113 % of control, the T/C (dose: 83.0 mg/kg/injection, schedule: Q01DX Z (ip), vehicle: methylcellulose (MC)) was 94 % of control and the T/C (dose: 125.0 mg/kg/injection, schedule: Q01DX Z (ip), vehicle: methylcellulose (MC)) was 93 % of control.
In the case of `COc1cccc2c1C1c3ccccc3C(O)CC1CC2O` (stereo not given), the T/C (dose: 37.5 mg/kg/injection, schedule: Q01DX001 (ip), vehicle: Klucel (hydroxypropylcellulose) (HPC)) is reported as 89 % of control, the T/C (dose: 75.0 mg/kg/injection, schedule: Q01DX001 (ip), vehicle: Klucel (hydroxypropylcellulose) (HPC)) is reported as 104 % of control and the T/C (dose: 150.0 mg/kg/injection, schedule: Q01DX001 (ip), vehicle: Klucel (hydroxypropylcellulose) (HPC)) is reported as 91 % of control.
For `O=C(O)c1cnc(Cl)c(Br)c1`, the T/C (dose: 100.0 mg/kg/injection, schedule: Q04DX003 (ip), vehicle: saline with Tween-80) was 94 % of control, the T/C (dose: 200.0 mg/kg/injection, schedule: Q04DX003 (ip), vehicle: saline with Tween-80) was 94 % of control and the T/C (dose: 400.0 mg/kg/injection, schedule: Q04DX003 (ip), vehicle: saline with Tween-80) was 96 % of control.
In the case of `CC1(C)OC2C(C(N)=O)OC(n3cnc4c(N)ncnc43)C2O1` (stereo not given), the T/C (dose: 100.0 mg/kg/injection, schedule: Q01DX005 (ip), vehicle: saline) is reported as 104 % of control and the T/C (dose: 200.0 mg/kg/injection, schedule: Q01DX005 (ip), vehicle: saline) is reported as 102 % of control.
For `CCOC(=O)CNN`, the T/C (dose: 4.0 mg/kg/injection, schedule: Q01DX009 (ip), vehicle: saline) was 93 % of control, the T/C (dose: 8.0 mg/kg/injection, schedule: Q01DX009 (ip), vehicle: saline) was 108 % of control and the T/C (dose: 16.0 mg/kg/injection, schedule: Q01DX009 (ip), vehicle: saline) was 103 % of control. The T/C (dose: 28.0 mg/kg/injection, schedule: Q01DX001 (ip), vehicle: saline) was 101 % of control, the T/C (dose: 56.0 mg/kg/injection, schedule: Q01DX001 (ip), vehicle: saline) was 108 % of control and the T/C (dose: 112.0 mg/kg/injection, schedule: Q01DX001 (ip), vehicle: saline) was 114 % of control.
In the case of `CCOC(=O)CC(NC(=O)N(CCCl)CCCl)C(=O)OCC` (stereo not given), the T/C (dose: 62.5 mg/kg/injection, schedule: Q01DX Z (ip), vehicle: water) is reported as 101 % of control, the T/C (dose: 125.0 mg/kg/injection, schedule: Q01DX Z (ip), vehicle: water) is reported as 108 % of control and the T/C (dose: 250.0 mg/kg/injection, schedule: Q01DX Z (ip), vehicle: water) is reported as 111 % of control.
For `COC(=O)C1C2CCC3C2C(C)(C)CCCC31C` (stereo not given), the T/C [2] was 98 % of control, the T/C [9] was 106 % of control and the T/C [10] was 103 % of control.
